Test results: US20180265515A1 (Genentech, Inc., priority 2015, published 2018)

Columns and labels:
[1] = target: T1, isolated recombinant JAK1 kinase domain (Homo sapiens, UniProt P23458); experiment: JAK1 enzyme assay (Caliper LabChip, Ki); type: biochemical; details: recombinant JAK1 kinase domain, 25 μM ATP
T1 construct: The activity of the isolated recombinant JAK1 and JAK2 kinase domain was measured
How it was run: (§1)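 Recombinant JAK1 or JAK2 kinase domain phosphorylating a 5-carboxyfluorescein-labelled JAK3-derived peptide, 30 min at 22° C, stopped with EDTA. Phosphorylated fraction of substrate quantified by Caliper LabChip microfluidic separation. Ki from Morrison tight-binding model corrected for ATP competition (Ki=Ki,app/(1+[ATP]/Km,app)).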

[2] = target: T2, isolated recombinant JAK2 kinase domain (Homo sapiens, UniProt O60674); experiment: JAK2 enzyme assay (Caliper LabChip, Ki); type: biochemical; details: 25 μM ATP
T2 construct: The activity of the isolated recombinant JAK1 and JAK2 kinase domain was measured
How it was run: as §1

[3] = system: JAK1-dependent STAT6 phosphorylation downstream of IL-13 stimulation in BEAS-2B human bronchial epithelial cells; experiment: JAK1 pathway assay in BEAS-2B cells (IL-13 stimulated STAT6 phosphorylation, MSD); type: cell-based; details: read-out: P-STAT6 BEAS2B + IL13 IC50
How it was run: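 BEAS-2B human bronchial epithelial cells, plated the day before in complete growth medium, were preincubated with compound for 1 hr at 37° C (0.2% DMSO final), then stimulated with IL-13 at its EC90 for 15 min. STAT6 phosphorylation in lysates was read by MSD; EC50 was taken as 50% inhibition versus DMSO control.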

T1 sequence (P23458 875-1153 limits assumed): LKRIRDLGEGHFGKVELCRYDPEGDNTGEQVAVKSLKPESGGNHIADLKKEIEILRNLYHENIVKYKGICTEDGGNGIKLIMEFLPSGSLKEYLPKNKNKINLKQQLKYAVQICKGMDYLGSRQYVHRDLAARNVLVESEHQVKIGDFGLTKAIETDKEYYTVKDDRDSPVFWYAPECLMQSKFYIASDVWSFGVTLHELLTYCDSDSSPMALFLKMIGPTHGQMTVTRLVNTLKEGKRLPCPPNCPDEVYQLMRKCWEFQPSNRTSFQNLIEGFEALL
T2 sequence (O60674 849-1124 limits assumed): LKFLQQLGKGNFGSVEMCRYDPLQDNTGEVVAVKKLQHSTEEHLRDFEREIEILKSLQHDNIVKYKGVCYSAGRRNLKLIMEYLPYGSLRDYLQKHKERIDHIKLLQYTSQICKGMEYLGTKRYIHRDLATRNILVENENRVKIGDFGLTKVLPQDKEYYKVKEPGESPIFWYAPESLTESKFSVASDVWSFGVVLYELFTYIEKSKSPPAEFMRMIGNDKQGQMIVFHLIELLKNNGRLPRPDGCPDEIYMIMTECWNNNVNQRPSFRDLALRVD

Row | Ki [1] | Ki [2] | Structure (SMILES) | IC50 [3]
1 | 0.38 nM | 0.56 nM | CSc1ccc(OC(F)F)c(-c2nn(CC(=O)N3CCN([C@H]4CC[C@@H](C#N)CC4)CC3)cc2NC(=O)c2cnn3cccnc23)c1 [Example 99, N-[1-[2-[4-(4-cyanocyclohexyl)piperazin-1-yl]-2-oxo-ethyl]-3-[2-(difluoromethoxy)-5-methylsulfanyl-phenyl]pyrazol-4-yl]pyrazolo[1,5-a]pyrimidine-3-carboxamide] | 9.5 nM
2 | 0.41 nM | 0.6 nM | CSc1ccc(OC(F)F)c(-c2nn(CC(=O)N3CCN([C@H]4CC[C@H](C#N)CC4)CC3)cc2NC(=O)c2cnn3cccnc23)c1 [Example 100, N-[1-[2-[4-(4-cyanocyclohexyl)piperazin-1-yl]-2-oxo-ethyl]-3-[2-(difluoromethoxy)-5-methylsulfanyl-phenyl]pyrazol-4-yl]pyrazolo[1,5-a]pyrimidine-3-carboxamide] | 9.4 nM
3 | 0.2 nM | 0.093 nM | CC(C)Sc1ccc(OC(F)F)c(-c2n[nH]cc2NC(=O)c2cnn3cccnc23)c1 [Example 101, N-[3-[2-(difluoromethoxy)-5-(propan-2-ylsulfanyl)phenyl]-1H-pyrazol-4-yl]pyrazolo[1,5-a]pyrimidine-3-carboxamide] | 3.7 nM
4 | 0.38 nM | 0.85 nM | CC(C)Sc1ccc(OC(F)F)c(-c2nn(CC(=O)N3CCC(N4CCOCC4)CC3)cc2NC(=O)c2cnn3cccnc23)c1 [Example 102, N-[3-[2-(difluoromethoxy)-5-isopropylsulfanyl-phenyl]-1-[2-(4-morpholino-1-piperidyl)-2-oxo-ethyl]pyrazol-4-yl]pyrazolo[1,5-a]pyrimidine-3-carboxamide] | 20 nM
5 | 0.33 nM | 0.75 nM | CC(C)Sc1ccc(OC(F)F)c(-c2nn(CC(=O)N3CCN(CCCC#N)CC3)cc2NC(=O)c2cnn3cccnc23)c1 [Example 103, N-[1-[2-[4-(3-cyanopropyl)piperazin-1-yl]-2-oxo-ethyl]-3-[2-(difluoromethoxy)-5-isopropylsulfanyl-phenyl]pyrazol-4-yl]pyrazolo[1,5-a]pyrimidine-3-carboxamide] | 41 nM
6 | 0.42 nM | 1.2 nM | CC(C)Sc1ccc(OC(F)F)c(-c2nn(CC(=O)N3CCC(NCC(=O)N(C)C)CC3)cc2NC(=O)c2cnn3cccnc23)c1 [Example 104, N-[3-[2-(difluoromethoxy)-5-isopropylsulfanyl-phenyl]-1-[2-[4-[[2-(dimethylamino)-2-oxo-ethyl]amino]-1-piperidyl]-2-oxo-ethyl]pyrazol-4-yl]pyrazolo[1,5-a]pyrimidine-3-carboxamide] | 160 nM
7 | 0.43 nM | 1.3 nM | CC(C)Sc1ccc(OC(F)F)c(-c2nn(CC(=O)N3CCC(N(C)CC(=O)N(C)C)CC3)cc2NC(=O)c2cnn3cccnc23)c1 [Example 105, N-[3-[2-(difluoromethoxy)-5-isopropylsulfanyl-phenyl]-1-[2-[4-[[2-(dimethylamino)-2-oxo-ethyl]-methyl-amino]-1-piperidyl]-2-oxo-ethyl]pyrazol-4-yl]pyrazolo[1,5-a]pyrimidine-3-carboxamide] | 72 nM

The next lines start with the molecule.

Row | Structure (SMILES) | Ki [1] | Ki [2] | IC50 [3]
8 | CSc1ccc(OC(F)F)c(-c2nn(CC(=O)N3CCC(CN4CCN(CC(=O)N(C)C)C[C@H]4C)CC3)cc2NC(=O)c2cnn3cccnc23)c1 [Example 87, N-[3-[2-(difluoromethoxy)-5-methylsulfanyl-phenyl]-1-[2-[4-[[(2R)-4-[2-(dimethylamino)-2-oxo-ethyl]-2-methyl-piperazin-1-yl]methyl]-1-piperidyl]-2-oxo-ethyl]pyrazol-4-yl]pyrazolo[1,5-a]pyrimidine-3-carboxamide] | 0.39 nM | 0.61 nM | 35 nM
9 | CSc1ccc(OC(F)F)c(-c2nn(CC(=O)N3CCC(N4CCN(CC(=O)N5CCOCC5)CC4)CC3)cc2NC(=O)c2cnn3cccnc23)c1 [Example 88, N-[3-[2-(difluoromethoxy)-5-methylsulfanyl-phenyl]-1-[2-[4-[4-(2-morpholino-2-oxo-ethyl)piperazin-1-yl]-1-piperidyl]-2-oxo-ethyl]pyrazol-4-yl]pyrazolo[1,5-a]pyrimidine-3-carboxamide] | 0.32 nM | 0.49 nM | 470 nM
10 | CSc1ccc(OC(F)F)c(-c2nn(CC(=O)N3CCN(C4CCN(CC(=O)N(C)C)CC4)CC3)cc2NC(=O)c2cnn3cccnc23)c1 [Example 89, N-[3-[2-(difluoromethoxy)-5-methylsulfanyl-phenyl]-1-[2-[4-[1-[2-(dimethylamino)-2-oxo-ethyl]-4-piperidyl]piperazin-1-yl]-2-oxo-ethyl]pyrazol-4-yl]pyrazolo[1,5-a]pyrimidine-3-carboxamide] | 0.51 nM | 0.78 nM | 200 nM
11 | CSc1ccc(OC(F)F)c(-c2nn(Cc3cn(C4CCN(C5COC5)CC4)nn3)cc2NC(=O)c2cnn3cccnc23)c1 [Example 90, N-[3-[2-(difluoromethoxy)-5-methylsulfanyl-phenyl]-1-[[1-[1-(oxetan-3-yl)-4-piperidyl]triazol-4-yl]methyl]pyrazol-4-yl]pyrazolo[1,5-a]pyrimidine-3-carboxamide] | 0.32 nM | 0.14 nM | 22 nM
12 | CSc1ccc(OC(F)F)c(-c2nn(C)cc2NC(=O)c2cnn3cccnc23)c1 [Example 91, N-[3-[2-(difluoromethoxy)-5-methylsulfanyl-phenyl]-1-methyl-pyrazol-4-yl]pyrazolo[1,5-a]pyrimidine-3-carboxamide] | 0.13 nM | 0.071 nM | 3.9 nM
13 | CSc1ccc(OC(F)F)c(-c2nn(CC(=O)N3CCC(N(CCN4CCOCC4)C4COC4)CC3)cc2NC(=O)c2cnn3cccnc23)c1 [Example 92, N-[3-[2-(difluoromethoxy)-5-methylsulfanyl-phenyl]-1-[2-[4-[2-morpholinoethyl(oxetan-3-yl)amino]-1-piperidyl]-2-oxo-ethyl]pyrazol-4-yl]pyrazolo[1,5-a]pyrimidine-3-carboxamide] | 0.61 nM | 0.77 nM | 1000 nM
14 | CSc1ccc(OC(F)F)c(-c2nn(CC(=O)N3CCN(CC4CCN(CC(=O)N5CCOCC5)CC4)CC3)cc2NC(=O)c2cnn3cccnc23)c1 [Example 93, N-[3-[2-(difluoromethoxy)-5-methylsulfanyl-phenyl]-1-[2-[4-[[1-(2-morpholino-2-oxo-ethyl)-4-piperidyl]methyl]piperazin-1-yl]-2-oxo-ethyl]pyrazol-4-yl]pyrazolo[1,5-a]pyrimidine-3-carboxamide] | 0.44 nM | 0.71 nM | 26 nM
15 | CSc1ccc(OC(F)F)c(-c2nn(CC(=O)N3CCC(CN4CCN(CC(=O)N(C)C)C[C@@H]4C)CC3)cc2NC(=O)c2cnn3cccnc23)c1 [Example 94, N-[3-[2-(difluoromethoxy)-5-methylsulfanyl-phenyl]-1-[2-[4-[[(2S)-4-[2-(dimethylamino)-2-oxo-ethyl]-2-methyl-piperazin-1-yl]methyl]-1-piperidyl]-2-oxo-ethyl]pyrazol-4-yl]pyrazolo[1,5-a]pyrimidine-3-carboxamide] | 0.46 nM | 0.63 nM | 62 nM
16 | CSc1ccc(OC(F)F)c(-c2nn(CC(=O)N3CCC(CN4CCNCC4)CC3)cc2NC(=O)c2cnn3cccnc23)c1 [Example 95, N-[3-[2-(difluoromethoxy)-5-methylsulfanyl-phenyl]-1-[2-oxo-2-[4-(piperazin-1-ylmethyl)-1-piperidyl]ethyl]pyrazol-4-yl]pyrazolo[1,5-a]pyrimidine-3-carboxamide] | 0.37 nM | 0.68 nM | 150 nM
17 | CSc1ccc(OC(F)F)c(-c2nn(Cc3cn(C4CCN(C5CCOC5)CC4)nn3)cc2NC(=O)c2cnn3cccnc23)c1 (stereo not drawn) [Example 96, N-[3-[2-(difluoromethoxy)-5-methylsulfanyl-phenyl]-1-[[1-(1-tetrahydrofuran-3-yl-4-piperidyl)triazol-4-yl]methyl]pyrazol-4-yl]pyrazolo[1,5-a]pyrimidine-3-carboxamide] | 0.3 nM | 0.2 nM | 14 nM
18 | CSc1ccc(OC(F)F)c(-c2nn(CC(=O)N3CCC(CN4CCN(CC(=O)N(C)C)[C@H](C)C4)CC3)cc2NC(=O)c2cnn3cccnc23)c1 [Example 97, N-[3-[2-(difluoromethoxy)-5-methylsulfanyl-phenyl]-1-[2-[4-[[(3R)-4-[2-(dimethylamino)-2-oxo-ethyl]-3-methyl-piperazin-1-yl]methyl]-1-piperidyl]-2-oxo-ethyl]pyrazol-4-yl]pyrazolo[1,5-a]pyrimidine-3-carboxamide] | 0.38 nM | 0.62 nM | 30 nM
19 | CSc1ccc(OC(F)F)c(-c2nn(CC(=O)N3CCC(CN4C[C@@H](C)N(CC(=O)N(C)C)C[C@@H]4C)CC3)cc2NC(=O)c2cnn3cccnc23)c1 [Example 98, N-[3-[2-(difluoromethoxy)-5-methylsulfanyl-phenyl]-1-[2-[4-[[(2S,5R)-4-[2-(dimethylamino)-2-oxo-ethyl]-2,5-dimethyl-piperazin-1-yl]methyl]-1-piperidyl]-2-oxo-ethyl]pyrazol-4-yl]pyrazolo[1,5-a]pyrimidine-3-carboxamide] | 0.64 nM | 1.2 nM | 37 nM
